This is an account of results in patent US20220133747A1, “ESTROGEN RECEPTOR INHIBITORS AND USES THEROF” (The Regents of the University of California, priority 2018, published 2022).

The structures appear in SMILES notation. “Also recorded” adds a separate entry of the source.

The subject of assay [1] is MCF-7 human breast tumor xenografts. Nature of the assay: MCF-7 human breast tumor xenografts in nude mice. To be noted: 15 and 75 mg/kg once a day by oral gavage for 28 days. In kind it is in vivo. Background: A xenograft is tissue or cells of one species grown in another, often human tumour cells in immunodeficient mice.
A further assay has as its system MCF-7 cells. The assay can be described thus: Cell proliferation assay, MCF-7 (MCF-7/PAR). In kind it is cell-based, human. The following applies: 10 nM with 2 nM estradiol-17β, 48 hr.
Another assay relates to MCF-7/HER2 cells. Nature of the assay: Cell proliferation assay, MCF-7 with HER2-overexpression. Format: cell-based, human. The following applies: MCF-7/HER2, 10 nM with 2 nM estradiol-17β, 48 hr.
The test system of a further assay is T47D cells. The assay can be described thus: Cell proliferation assay, T47D. Format: cell-based, human. To be noted: 10 nM with 2 nM estradiol-17β, 48 hr.
In a further assay the test system is STAT3. The assay can be described thus: Phosphorylated STAT3 in G-MDSC subpopulations, flow cytometry. To be noted: 1 μM in normal medium with GM-CSF and IL6, 6 days. Format: cell-based, human. As for the experimental part: Bone marrow cells from three breast cancer patients were incubated with GM-CSF and IL6 in the following groups: normal medium (contains estradiol) in the presence of vehicle (CON), 1 μM fulvestrant (FULV) or 1 μM S128. After 6 days, cells were subjected to flow cytometry using an antibody directed to phosphorylated STAT3 (p-STAT; 1).
FIGS. 22A-22B show expansion of MDSCs is dependent on estrogen signaling and reversed by antiestrogens. […] Retrospectively-collected BM cells from de-identified BC patients were purified by established methods including red blood cell lysis and Ficoll gradients and then incubated with GM-CSF and IL-6 for 6 days in either regular RPMI medium+15% FBS (NM) (contains estrogens), NM with antiestrogens (FULV or SERD128) or in phenol red-free medium with 15% charcoal coated-dextran treated FBS (EFM) (estrogen-depleted) with or without the addition of 100 nM estradiol-17β (EFM+E2). […]
Human myeloid-derived suppressor cells were expanded from bone marrow (BM) specimens of BC patients after standard Ficoll gradient purification and red blood cell lysis. […] After 6 days of culture, cells were harvested, stained with a 14 antibody panel including anti-phospho-STAT3 (pSTAT3) and analyzed by flow cytometry with an LSRII with a 5 lasers (UV, violet, blue, green-yellow and red). […]
(In flow cytometry, cells or beads pass a laser one at a time.)

In another assay the test system is ZR75 cells. The assay can be described thus: Cell proliferation assay, ZR75. Format: cell-based, human. To be noted: ZR75, 10 nM with 2 nM estradiol-17β, 48 hr.
A further assay deals with T1, ER (Homo sapiens, UniProt P03372).
T1 construct: endogenous in cells; host or cells: MCF-7 human breast cancer cells in suspension (intact cells)
T1 sequence (P03372 1-595): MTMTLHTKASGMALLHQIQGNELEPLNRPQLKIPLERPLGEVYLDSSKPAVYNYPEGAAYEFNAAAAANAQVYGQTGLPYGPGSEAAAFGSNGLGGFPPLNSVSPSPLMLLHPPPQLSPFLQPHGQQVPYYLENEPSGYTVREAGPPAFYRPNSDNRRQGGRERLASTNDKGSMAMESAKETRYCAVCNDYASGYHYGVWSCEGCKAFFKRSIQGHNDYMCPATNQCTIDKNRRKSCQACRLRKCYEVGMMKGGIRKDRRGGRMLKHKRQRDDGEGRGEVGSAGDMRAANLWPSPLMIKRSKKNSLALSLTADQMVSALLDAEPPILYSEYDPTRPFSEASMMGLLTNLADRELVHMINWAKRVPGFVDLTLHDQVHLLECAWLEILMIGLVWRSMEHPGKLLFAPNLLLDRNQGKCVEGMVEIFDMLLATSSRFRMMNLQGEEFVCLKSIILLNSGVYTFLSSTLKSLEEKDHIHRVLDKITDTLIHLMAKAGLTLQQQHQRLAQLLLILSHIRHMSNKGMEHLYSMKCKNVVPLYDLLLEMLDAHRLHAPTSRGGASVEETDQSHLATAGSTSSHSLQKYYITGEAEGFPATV
Nature of the assay: Specific [3H]estradiol-17β binding competition in MCF-7 breast cancer cells. The following applies: MCF-7 cells, 10 nM. As for the experimental part: (§1) FIGS. 20A-20C show biologic activity of selected SERD candidates. […] ER-positive MCF-7 cells were treated in phenol-red free RPMI 1640 without FBS and containing vehicle control (CON) or 100 nM concentrations of either fulvestrant (FX) or antiestrogens 105, 109, 121, 140, 151, 160 or SERD128 in vitro. After 4 hours, cells were harvested and processed for PAGE and Western immunoblots using ERα antibody (1D5, Thermofisher Scientific). RPL13A was used as a loading control. […] Cells were dosed with either E2 alone or with SERDs combined with E2 in phenol redfree medium with 0.1% dextran-coated charcoal-treated FBS in luminometer plates. Data are presented as relative light units (RLU) relative to that of E2 alone in three replicate assays (4 wells per replicate) f SEM. Treatment with E2 alone induced a 12-fold induction of ER-dependent luciferase activity quantified as RLU relative to vehicle control-treated samples.
Specific estradiol-17β (E2) binding and competition for binding by antiestrogen SERD128 or fulvestrant was assessed in human MCF-7 breast cancer cells using methods as described before. […] Competitive ligand binding to ER-positive MCF-7 cells is detected by the ability of a test compound to displace labeled estradiol-17β from the cells in vitro.

Another assay has as its target T2, ERα (Homo sapiens, UniProt P03372).
T2 construct: endogenous in cells; host or cells: MCF-7 human breast cancer cells (ATCC)
T2 sequence (P03372 1-595): T1 sequence (P03372 1-595)
Nature of the assay: Downregulation of ER protein, PAGE and Western immunoblot in MCF-7 cells. Format: cell-based. To be noted: 100 nM, 4 hours, phenol-red free medium without FBS. As for the experimental part:
as §1
MCF7 cells were plated in regular medium. After 24 hrs, cells were incubated in the presence of antiestrogens or fulvestrant for 4 hrs in phenol-red free medium without FBS. Cell lysates were prepared using RIPA buffer, and protein concentration was determined using the BCA Protein Assay Kit (PIERCE/ThermoFisher Scientific). Forty micrograms of total cell protein was resolved by 4-15% SDS-PAGE, transferred to a PVDF membrane and probed with antibody directed against ERα (1D5, 1:100, ThermoFisher cat #MA5-13191). RPL13A (dilution 1:1000, Invitrogen/ThermoFisher cat #PA5-58528) was used as loading control.
(In general: Immunoblotting shows a protein as a band on a membrane.)

On to `C[C@]12C[C@H](Oc3ccc(N)c(C(F)(F)F)c3)[C@@H]3c4ccc(O)cc4CC[C@H]3[C@@H]1CC[C@@H]2O` [SERD128, (8S,9S,11S,13S,14S,17S)-11-(4-Amino-3-(trifluoromethyl)phenoxy)-13-methyl-7,8,9,11,12,13,14,15,16,17-decahydro-6H-cyclopenta[a]phenanthrene-3,17-diol], for which, in assay [1], the “tumor growth (tumor volume)” value is “inhibits growth of human breast tumor xenografts in vivo; also recorded: significantly inhibited tumor growth in MCF-7 xenograft models in a dose-dependent manner; also recorded: inhibit the growth of human MCF-7 breast tumor xenografts in vivo in a dose-dependent manner; also recorded: potent biologic action in blocking the progression of breast tumors in vivo via an oral route of administration”. For the same compound, the “cell proliferation (% of estradiol-treated controls)” value in the assay on MCF-7 cells is on record as “significantly blocked proliferation; also recorded: significantly inhibited; also recorded: antiproliferative action”; in the assay on MCF-7/HER2 cells, “significantly blocked proliferation; also recorded: antiproliferative action”; with T47D cells, “significantly blocked proliferation; also recorded: significantly inhibited”; with ZR75 cells, “significantly blocked proliferation; also recorded: significantly inhibited”. In addition, the “p-STAT3 median fluorescence intensity in G-MDSC” value in the assay on STAT3 was “blocks phosphorylation/activation of STAT3; also recorded: especially effective in blocking the phosphorylation and activation of STAT3”; in the assay on STAT3 (listed as S128) it was “blocks phosphorylation/activation of STAT3; also recorded: inhibits the STAT signaling pathway”. At ER, the “competition for specific [3H]estradiol-17β (E2) binding” value is reported as “comparable to that of the pure antiestrogen fulvestrant”. In addition, the “downregulation of ER protein (ERα protein levels)” value was “comparable to that of the pure antiestrogen fulvestrant” on ERα and “most effective in reducing ER protein levels; also recorded: comparable to that of fulvestrant” on ERα (listed as 128).
